In paper PMC6335200 (Journal of medicinal chemistry, 2018):

Experiments:
EBOV (Kikwit isolate) [1] = test system: EBOV (Kikwit isolate)
GAK = target: T1, GAK (Homo sapiens, UniProt O14976); details: read-out: GAK affinity Kd; cited from earlier work
T1 sequence (O14976 1-1311): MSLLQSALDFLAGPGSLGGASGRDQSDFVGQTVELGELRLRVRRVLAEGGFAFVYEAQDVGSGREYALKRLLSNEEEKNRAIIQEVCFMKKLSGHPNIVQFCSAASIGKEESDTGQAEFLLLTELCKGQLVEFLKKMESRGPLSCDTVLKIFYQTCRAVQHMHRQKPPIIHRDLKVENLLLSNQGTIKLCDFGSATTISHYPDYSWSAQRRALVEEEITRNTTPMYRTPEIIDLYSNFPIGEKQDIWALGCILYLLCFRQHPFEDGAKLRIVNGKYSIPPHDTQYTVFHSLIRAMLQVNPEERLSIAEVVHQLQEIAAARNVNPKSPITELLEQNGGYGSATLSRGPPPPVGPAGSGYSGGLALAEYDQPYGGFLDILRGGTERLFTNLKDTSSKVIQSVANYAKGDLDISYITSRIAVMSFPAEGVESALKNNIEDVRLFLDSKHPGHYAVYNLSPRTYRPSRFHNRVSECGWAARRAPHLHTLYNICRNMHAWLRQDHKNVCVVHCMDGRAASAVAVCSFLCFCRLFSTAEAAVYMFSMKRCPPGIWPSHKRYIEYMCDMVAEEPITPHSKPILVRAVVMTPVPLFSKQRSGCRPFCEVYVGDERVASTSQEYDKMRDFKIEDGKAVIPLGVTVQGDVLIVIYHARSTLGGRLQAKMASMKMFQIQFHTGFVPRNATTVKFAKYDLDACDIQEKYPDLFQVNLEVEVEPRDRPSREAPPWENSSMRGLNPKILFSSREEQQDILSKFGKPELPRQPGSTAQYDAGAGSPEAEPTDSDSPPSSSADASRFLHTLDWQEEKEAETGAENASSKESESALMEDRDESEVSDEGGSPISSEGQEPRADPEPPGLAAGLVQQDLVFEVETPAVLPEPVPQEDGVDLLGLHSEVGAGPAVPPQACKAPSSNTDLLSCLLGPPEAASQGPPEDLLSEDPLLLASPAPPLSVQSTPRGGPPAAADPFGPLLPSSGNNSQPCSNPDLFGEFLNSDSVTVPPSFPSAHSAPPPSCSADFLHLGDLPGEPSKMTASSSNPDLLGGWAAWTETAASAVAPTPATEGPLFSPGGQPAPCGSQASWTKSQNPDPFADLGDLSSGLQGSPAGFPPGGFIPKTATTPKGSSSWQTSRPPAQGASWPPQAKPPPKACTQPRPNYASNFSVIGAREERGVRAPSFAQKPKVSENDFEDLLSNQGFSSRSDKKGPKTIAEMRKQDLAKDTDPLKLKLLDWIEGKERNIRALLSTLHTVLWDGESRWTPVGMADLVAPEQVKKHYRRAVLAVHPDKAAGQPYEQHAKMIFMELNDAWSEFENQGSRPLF

CHIKV (strain AF15561) = format: cell-based, Chikungunya virus
AP2M1 phosphorylation = AP2M1 phosphorylation by Western analysis in Huh7 cells; format: cell-based, Human; details: calyculin A 30 minutes before lysis
EBOV (Kikwit isolate) [2] = test: microbe, parasite or virus in culture; details: Zaire ebolavirus, Huh-7, 48 h, read-out: EBOV antiviral activity EC50

Structure (SMILES) | anti-EBOV activity (in words) (EBOV (Kikwit isolate) [1]) | Kd (GAK) | effect on CHIKV infection (in words) (CHIKV (strain AF15561)) | effect on AP2M1 phosphorylation (in words) (AP2M1 phosphorylation) | EC50 (EBOV (Kikwit isolate) [2])
COc1cc(-c2cnc3c(N4CCOCC4)snc3c2)ccc1N [Compound 4] | no anti-EBOV activity beyond cytotoxicity | 8 nM | – | – | –
COc1cc(-c2cnc3c(N4C[C@@H](C)O[C@@H](C)C4)snc3c2)ccc1N [Compound 12r, 4-(3-(cis-2,6-Dimethylmorpholino)isothiazolo[4,3-b]pyridin-6-yl)-2-methoxyaniline] | – | – | dose-dependent decrease in CHIKV infection | reduced AP2M1 phosphorylation | ~2000 nM
